The values that follow come from patent US9826773B2, “Brazzen multiple variants of increased sweetness, and production method for same” (CHUNG-ANG UNIVERSITY INDUSTRY—ACADEMIC COOPERATION …, priority 2012, dated 2017).

The subject of this assay is human gustatory system. Briefly: Measurement of sweetness activity using the human gustatory system (threshold of initially sensing sweetness). The format is in vivo. The settings on record: for Level of sweetness compared to sucrose (g/g): mass basis; for Level of sweetness compared to sucrose (g/g) / Level of sweetness compared to sucrose (molecular): sucrose = 1; for Level of sweetness compared to sucrose (molecular): molar basis; for times as sweet as sucrose in the same mass: rounded values of the text; for times as sweet as the wild-type brazzein in the same mass: relative to wild-type brazzein. The procedure:
Since brazzein is not a sugar but a protein, sweetness may not be measured using a saccharimeter. Consequently, the activity was measured using the human gustatory system. Since the threshold values of initially sensing sweetness are different per person, the activity was measured by comparing the concentrations of initially sensing sweetness between a sugar solution and a brazzein solution. The subjects were composed of 10 men and 10 women, who were trained in advance. First, the standard sugar solution was sequentially tasted, and the concentration of initially sensing sweetness was checked. Brazzein was dissolved in distilled water (10.0 mg/mL) and diluted to set the concentration to 1 to 20 ng/mL, and the sweetness of the solution was tasted and the concentration of sensing sweetness as the threshold value was checked to measure the relative activity of sweetness among sugar, wild-type brazzein, and a brazzein variant. Specifically, the activity was measured as follows. Before the activity was measured, the subject was informed in advance of the test date and time to sense the taste in tiptop conditions, and was prohibited from drinking alcohol the day before the test date and eating food immediately before the test. The subject washed the palate with bottled water prepared, and then a sample according to the concentration of each kind was tasted in each of an amount of 100 μl sequentially from a low concentration to a high concentration. The resulting data were obtained by discarding dubious values through the Q test, minimizing the standard deviation, and calculating the average.

[1] abbreviates: same threshold expressed in molar concentration.
Setting [2] is: trained panel of 10 men and 10 women, concentration of initially sensing sweetness, 100 μl samples tasted from low to high concentration.

`OC[C@H]1O[C@@](CO)(O[C@H]2O[C@H](CO)[C@@H](O)[C@H](O)[C@H]2O)[C@@H](O)[C@@H]1O` [Sucrose, reference compound]: the “Level of sweetness compared to sucrose (g/g)” value is reported as 1 and the “Level of sweetness compared to sucrose (molecular)” value came to 1. Moreover, under setting [1], the “Threshold value of sweetness experiment” value is given as 58,000 μM. Moreover, under setting [2], the “Threshold value of sweetness experiment” value is reported as 2.0 g (100 mL)^−1.
As to “K4D_H30R_E35D_E40A: brazzein multiple variant, 4th Lys to Asp in tertiary variant H30R_E35D_E40A, SEQ ID NO. 14 (DKCDKVYENYPVSKCQLANQCNYDCKLAKRARSGDCFYDAKRNLQCICDYCEY; Brazzein Variant)”, the “Level of sweetness compared to sucrose (g/g)” value was 2,000,000, the “Level of sweetness compared to sucrose (molecular)” value turned out to be 36708861, the “times as sweet as sucrose in the same mass” value (from here on “times as sweet as sucrose”) is 2,000,000 times and the “times as sweet as the wild-type brazzein in the same mass” value is listed as 2,500 times. The “Threshold value of sweetness experiment” value under setting [1] is 0.00158 µM. Further, under setting [2], the “Threshold value of sweetness experiment” value is on record as 0.0000010 g (100 mL)^−1.
In the case of “K4D_H30R_E35D_E40D: brazzein multiple variant, 4th Lys to Asp in tertiary variant H30R_E35D_E40D, SEQ ID NO. 17 (DKCDKVYENYPVSKCQLANQCNYDCKLAKRARSGDCFYDDKRNLQCICDYCEY; Brazzein Variant)”, the “Level of sweetness compared to sucrose (g/g)” value is 1,333,333, the “Level of sweetness compared to sucrose (molecular)” value was 24545600, the “times as sweet as sucrose” value was 1,300,000 times and the “times as sweet as the wild-type brazzein in the same mass” value is given as 1,670 times. In addition, the “Threshold value of sweetness experiment” value under setting [1] stood at 0.00236 µM. Under setting [2], the “Threshold value of sweetness experiment” value is reported as 0.0000015 g (100 mL)^−1.
Consider “K4D_H30R_E35D_E40K: brazzein multiple variant, 4th Lys to Asp in tertiary variant H30R_E35D_E40K, SEQ ID NO. 11 (DKCDKVYENYPVSKCQLANQCNYDCKLAKRARSGDCFYDKKRNLQCICDYCEY; Brazzein Variant)”, for which the “Level of sweetness compared to sucrose (g/g)” value is 1,598,481, the “Level of sweetness compared to sucrose (molecular)” value is 28379848, the “times as sweet as sucrose” value is 1,500,000 times and the “times as sweet as the wild-type brazzein in the same mass” value is 1,920 times. Under setting [1], the “Threshold value of sweetness experiment” value was found to be 0.00204 µM. Also, under setting [2], the “Threshold value of sweetness experiment” value is on record as 0.0000013 g (100 mL)^−1.
With “K4D_H30R_E35D_E40R: brazzein multiple variant, 4th Lys to Asp in tertiary variant H30R_E35D_E40R, SEQ ID NO. 20 (DKCDKVYENYPVSKCQLANQCNYDCKLAKRARSGDCFYDRKRNLQCICDYCEY; Brazzein Variant)”, the “Level of sweetness compared to sucrose (g/g)” value is reported as 1,818,181, the “Level of sweetness compared to sucrose (molecular)” value is on record as 33687455, the “times as sweet as sucrose” value is on record as 1,800,000 times and the “times as sweet as the wild-type brazzein in the same mass” value was 2,270 times. Further, the “Threshold value of sweetness experiment” value under setting [1] is 0.00172 µM. Further, under setting [2], the “Threshold value of sweetness experiment” value is given as 0.0000011 g (100 mL)^−1.
Take “K4E_H30R_E35D_E40A: brazzein multiple variant, 4th Lys to Glu in tertiary variant H30R_E35D_E40A, SEQ ID NO. 15 (DKCEKVYENYPVSKCQLANQCNYDCKLAKRARSGDCFYDAKRNLQCICDYCEY; Brazzein Variant)”: the “Level of sweetness compared to sucrose (g/g)” value is reported as 2,000,000, the “Level of sweetness compared to sucrose (molecular)” value is listed as 36708861, the “times as sweet as sucrose” value is on record as 2,000,000 times and the “times as sweet as the wild-type brazzein in the same mass” value is 2,500 times. The “Threshold value of sweetness experiment” value under setting [1] is 0.00158 µM. The “Threshold value of sweetness experiment” value under setting [2] was 0.0000010 g (100 mL)^−1.
On to “K4E_H30R_E35D_E40D: brazzein multiple variant, 4th Lys to Glu in tertiary variant H30R_E35D_E40D, SEQ ID NO. 18 (DKCEKVYENYPVSKCQLANQCNYDCKLAKRARSGDCFYDDKRNLQCICDYCEY; Brazzein Variant)”, for which the “Level of sweetness compared to sucrose (g/g)” value is on record as 1,250,000, the “Level of sweetness compared to sucrose (molecular)” value is given as 23062250, the “times as sweet as sucrose” value is 1,250,000 times and the “times as sweet as the wild-type brazzein in the same mass” value is given as 1,560 times. The “Threshold value of sweetness experiment” value under setting [1] amounted to 0.00251 µM. The “Threshold value of sweetness experiment” value under setting [2] is listed as 0.0000016 g (100 mL)^−1.
Turning to “K4E_H30R_E35D_E40K: brazzein multiple variant, 4th Lys to Glu in tertiary variant H30R_E35D_E40K, SEQ ID NO. 12 (DKCEKVYENYPVSKCQLANQCNYDCKLAKRARSGDCFYDKKRNLQCICDYCEY; Brazzein Variant)”, the “Level of sweetness compared to sucrose (g/g)” value is 1,666,666, the “Level of sweetness compared to sucrose (molecular)” value was determined as 30812500, the “times as sweet as sucrose” value is reported as 1,700,000 times and the “times as sweet as the wild-type brazzein in the same mass” value is 2,080 times. Also, the “Threshold value of sweetness experiment” value under setting [1] worked out at 0.00188 µM. Further, the “Threshold value of sweetness experiment” value under setting [2] is 0.0000012 g (100 mL)^−1.
As to “K4E_H30R_E35D_E40R: brazzein multiple variant, 4th Lys to Glu in tertiary variant H30R_E35D_E40R, SEQ ID NO. 21 (DKCEKVYENYPVSKCQLANQCNYDCKLAKRARSGDCFYDRKRNLQCICDYCEY; Brazzein Variant)”, the “Level of sweetness compared to sucrose (g/g)” value was 1,818,181, the “Level of sweetness compared to sucrose (molecular)” value was determined as 33761273, the “times as sweet as sucrose” value is 1,800,000 times and the “times as sweet as the wild-type brazzein in the same mass” value is given as 2,270 times. The “Threshold value of sweetness experiment” value under setting [1] was 0.00172 µM. Further, the “Threshold value of sweetness experiment” value under setting [2] was 0.0000011 g (100 mL)^−1.
With “K4R_H30R_E35D_E40A: brazzein multiple variant, 4th Lys to Arg in tertiary variant H30R_E35D_E40A, SEQ ID NO. 16 (DKCRKVYENYPVSKCQLANQCNYDCKLAKRARSGDCFYDAKRNLQCICDYCEY; Brazzein Variant)”, the “Level of sweetness compared to sucrose (g/g)” value is listed as 2,857,143, the “Level of sweetness compared to sucrose (molecular)” value was 52727273, the “times as sweet as sucrose” value was 2,900,000 times and the “times as sweet as the wild-type brazzein in the same mass” value is on record as 3,570 times. Moreover, the “Threshold value of sweetness experiment” value under setting [1] is 0.0011 µM. Moreover, under setting [2], the “Threshold value of sweetness experiment” value is on record as 0.0000007 g (100 mL)^−1.
With “K4R_H30R_E35D_E40D: brazzein multiple variant, 4th Lys to Arg in tertiary variant H30R_E35D_E40D, SEQ ID NO. 19 (DKCRKVYENYPVSKCQLANQCNYDCKLAKRARSGDCFYDDKRNLQCICDYCEY; Brazzein Variant)”, the “Level of sweetness compared to sucrose (g/g)” value is 1,666,666, the “Level of sweetness compared to sucrose (molecular)” value is recorded as 30860187, the “times as sweet as sucrose” value is on record as 1,700,000 times and the “times as sweet as the wild-type brazzein in the same mass” value is listed as 2,080 times. In addition, the “Threshold value of sweetness experiment” value under setting [1] was found to be 0.00188 µM. The “Threshold value of sweetness experiment” value under setting [2] was 0.0000012 g (100 mL)^−1.
As to “K4R_H30R_E35D_E40K: brazzein multiple variant, 4th Lys to Arg in tertiary variant H30R_E35D_E40K, SEQ ID NO. 13 (DKCRKVYENYPVSKCQLANQCNYDCKLAKRARSGDCFYDKKRNLQCICDYCEY; Brazzein Variant)”, the “Level of sweetness compared to sucrose (g/g)” value was 2,000,000, the “Level of sweetness compared to sucrose (molecular)” value turned out to be 37131600, the “times as sweet as sucrose” value is on record as 2,000,000 times and the “times as sweet as the wild-type brazzein in the same mass” value is 2,500 times. The “Threshold value of sweetness experiment” value under setting [1] stood at 0.00156 µM. Under setting [2], the “Threshold value of sweetness experiment” value is on record as 0.0000010 g (100 mL)^−1.
Take “K4R_H30R_E35D_E40R: brazzein multiple variant, 4th Lys to Arg in tertiary variant H30R_E35D_E40R, SEQ ID NO. 22 (DKCRKVYENYPVSKCQLANQCNYDCKLAKRARSGDCFYDRKRNLQCICDYCEY; Brazzein Variant)”: the “Level of sweetness compared to sucrose (g/g)” value is 2,000,000, the “Level of sweetness compared to sucrose (molecular)” value came to 37284000, the “times as sweet as sucrose” value was 2,000,000 times and the “times as sweet as the wild-type brazzein in the same mass” value is 2,500 times. Further, under setting [1], the “Threshold value of sweetness experiment” value stood at 0.00156 µM. In addition, the “Threshold value of sweetness experiment” value under setting [2] is recorded as 0.0000010 g (100 mL)^−1.
With “WT-Brazzein: wild-type brazzein, molecular weight 6501 in Table 3 (QDKCKKVYENYPVSKCQLANQCNYDCKLDKHARSGECFYDEKRNLQCICDYCEY; UniProt P56552 1-54, looked up) [reference compound]”, the “Level of sweetness compared to sucrose (g/g)” value was 800 and the “Level of sweetness compared to sucrose (molecular)” value was 15,082. For the same compound, the “Threshold value of sweetness experiment” value under setting [1] was found to be 3.846 µM. Further, under setting [2], the “Threshold value of sweetness experiment” value is 0.0025 g (100 mL)^−1.
